These results are taken from ChEMBL document CHEMBL3352104, “Biological evaluation and structural insights for design of subtype-selective peroxisome proliferator activated receptor-α (PPAR-α) agonists” (Bioorg Med Chem Lett, 2015).

SMILES strings stand for the structures.

For test [1], the target named is T1, Peroxisome proliferator-activated receptor alpha (Homo sapiens, UniProt Q07869).
T1 sequence (Q07869 whole entry): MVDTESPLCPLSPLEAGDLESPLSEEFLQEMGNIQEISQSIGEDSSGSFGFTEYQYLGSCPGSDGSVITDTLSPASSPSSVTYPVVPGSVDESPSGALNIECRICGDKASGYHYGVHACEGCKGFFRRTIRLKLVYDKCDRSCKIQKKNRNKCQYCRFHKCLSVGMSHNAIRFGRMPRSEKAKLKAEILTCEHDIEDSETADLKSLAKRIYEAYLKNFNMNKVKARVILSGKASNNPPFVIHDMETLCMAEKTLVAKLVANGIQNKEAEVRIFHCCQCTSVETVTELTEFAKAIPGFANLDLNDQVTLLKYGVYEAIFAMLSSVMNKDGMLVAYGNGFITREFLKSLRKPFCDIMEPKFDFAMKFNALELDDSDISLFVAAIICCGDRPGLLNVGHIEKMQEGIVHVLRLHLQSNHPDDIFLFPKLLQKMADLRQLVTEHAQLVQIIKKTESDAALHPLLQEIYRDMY
Kind of test: Agonist activity at GAL4-tagged PPARalpha ligand-binding domain (unknown origin) expressed in HEK293T cells incubated for 16 to 19 hrs by beta-lactamase reporter gene assay. It is filed as cell-based, HEK-293T.

Test [2] deals with T2, Peroxisome proliferator-activated receptor delta (Homo sapiens, UniProt Q03181).
T2 sequence (Q03181 whole entry): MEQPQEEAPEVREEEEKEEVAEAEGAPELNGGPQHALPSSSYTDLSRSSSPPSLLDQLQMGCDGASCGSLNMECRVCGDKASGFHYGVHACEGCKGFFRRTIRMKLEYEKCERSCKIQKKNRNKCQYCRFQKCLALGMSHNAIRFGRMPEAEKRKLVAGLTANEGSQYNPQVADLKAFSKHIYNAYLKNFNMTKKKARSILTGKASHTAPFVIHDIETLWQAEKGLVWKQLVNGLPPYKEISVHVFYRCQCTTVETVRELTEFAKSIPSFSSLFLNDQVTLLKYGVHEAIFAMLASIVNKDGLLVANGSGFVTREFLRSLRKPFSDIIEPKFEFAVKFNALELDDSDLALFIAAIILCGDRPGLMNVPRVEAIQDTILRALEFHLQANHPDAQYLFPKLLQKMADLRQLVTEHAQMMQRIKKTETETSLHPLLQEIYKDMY
Nature of the test: Agonist activity at GAL4-tagged PPARdelta (unknown origin).

The target of test [3] is T3, Peroxisome proliferator-activated receptor gamma (Homo sapiens, UniProt P37231).
T3 sequence (P37231 whole entry): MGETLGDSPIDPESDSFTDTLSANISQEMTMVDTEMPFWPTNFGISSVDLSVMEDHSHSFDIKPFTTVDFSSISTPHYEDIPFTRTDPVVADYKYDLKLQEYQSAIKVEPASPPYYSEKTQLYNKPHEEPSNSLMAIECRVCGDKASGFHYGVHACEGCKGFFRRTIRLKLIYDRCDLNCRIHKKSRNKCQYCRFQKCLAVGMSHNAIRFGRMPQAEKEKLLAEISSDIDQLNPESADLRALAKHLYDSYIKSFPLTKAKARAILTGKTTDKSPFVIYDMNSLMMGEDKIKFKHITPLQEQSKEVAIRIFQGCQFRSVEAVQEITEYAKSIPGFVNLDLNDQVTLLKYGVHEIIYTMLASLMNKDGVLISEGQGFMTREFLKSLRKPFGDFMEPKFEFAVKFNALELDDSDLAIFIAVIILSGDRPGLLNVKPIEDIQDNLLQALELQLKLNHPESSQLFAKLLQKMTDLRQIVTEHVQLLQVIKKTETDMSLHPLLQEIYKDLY
Nature of the test: Agonist activity at GAL4-tagged PPARgamma (unknown origin).

The molecule `CCCCCOC(=O)c1ccc(NC(=O)c2cccc(NC(=O)c3ccccc3C(=O)O)c2)cc1` registered an EC50 in test [1] of 0.0011 µM.
As to `Cc1nc(-c2ccc(Cl)cc2)sc1C(=O)N[C@H]1CCCN(c2cccc(C(=O)O)c2)C1`, the EC50 worked out at 13 µM in test [2] and 6.6 µM in test [3].
Taken in the same sequence, the figures for `Cc1ccc(-c2nc(C)c(C(=O)N[C@H]3CCCN(c4cccc(C(=O)O)c4)C3)s2)cc1` were 11 µM and 3.1 µM.
For the molecule `Cc1c(C(=O)O)cccc1-c1ccc(/C=C2/SC(=O)N(CC(=O)Nc3ccc(F)cc3)C2=O)o1`, the EC50 in test [1] was found to be 0.00016 µM.
On the same count and under the same terms, the result for `CCOC(=O)C1=C(Nc2ccc(OCC)cc2)S/C(=C/c2ccc(OCC(=O)O)c(OC)c2)C1=O` reads 0.0121 µM.
Turning to `Cc1nc(-c2cccc(C(F)(F)F)c2)sc1CNCc1ccc(OC(C)(C)C(=O)O)cc1`, the concentration giving a half-maximal response (EC50) is 0.004 µM in test [1], 25 µM in test [2] and 25 µM in test [3].
Turning to `CC[C@@H](Oc1cccc(CN(CCCOc2ccc(OC)cc2)c2nc3ccccc3o2)c1)C(=O)O` [PEMAFIBRATE], the EC50 came to 10 µM in test [2] and 1.7 µM in test [3].
